Assay results taken from ChEMBL document CHEMBL4321839, “Structure-activity relationships (SAR) of triazine derivatives: Promising antimicrobial agents” (Eur J Med Chem, 2020).
Values after ≈ are worked out from the molar mass of the structure shown. Values belong to the compound of their own block, whether it stands above or below them.

How the values were obtained:
[1] = test system: Escherichia coli; assay: Antimicrobial activity against Escherichia coli after 24 hrs by agar well diffusion assay; format: functional
[2] = test system: Escherichia coli; assay: Antimicrobial activity against Escherichia coli MTCC 443 assessed as reduction in microbial growth after 24 to 48 hrs by broth dilution method; format: functional
[3] = test system: Pseudomonas aeruginosa; assay: Antimicrobial activity against Pseudomonas aeruginosa MTCC 1688 assessed as reduction in microbial growth after 24 to 48 hrs by broth dilution method; format: functional
[4] = test system: Staphylococcus aureus; assay: Antimicrobial activity against methicillin-resistant Staphylococcus aureus CCARM 3089 assessed as reduction in microbial growth incubated for 18 to 24 hrs by two-fold serial dilution method; format: functional
[5] = test system: Enterococcus faecium; assay: Antimicrobial activity against vancomycin-resistant Enterococcus faecium ATCC 51559 assessed as reduction in microbial growth incubated for 18 to 24 hrs by two-fold serial dilution method; format: functional
[6] = test system: Pseudomonas aeruginosa; assay: Antimicrobial activity against multi drug-resistant Pseudomonas aeruginosa CCARM 2109 assessed as reduction in microbial growth incubated for 18 to 24 hrs by two-fold serial dilution method; format: functional
[7] = test system: Staphylococcus aureus; assay: Antimicrobial activity against methicillin-resistant Staphylococcus aureus CCARM 3090 assessed as reduction in microbial growth incubated for 18 to 24 hrs by two-fold serial dilution method; format: functional
[8] = test system: Staphylococcus aureus; assay: Antimicrobial activity against methicillin-resistant Staphylococcus aureus CCARM 3095 assessed as reduction in microbial growth incubated for 18 to 24 hrs by two-fold serial dilution method; format: functional
[9] = test system: Pseudomonas aeruginosa; assay: Antimicrobial activity against multi drug-resistant Pseudomonas aeruginosa CCARM 2095 assessed as reduction in microbial growth incubated for 18 to 24 hrs by two-fold serial dilution method; format: functional
[10] = test system: Staphylococcus aureus; assay: Antimicrobial activity against methicillin-resistant Staphylococcus aureus assessed as reduction in microbial growth after 24 to 48 hrs by microdilution susceptibility test; format: functional
[11] = test system: Escherichia coli; assay: Antimicrobial activity against Escherichia coli ATCC 25922 assessed as reduction in microbial growth after 24 to 48 hrs by microdilution susceptibility test; format: functional
[12] = test system: Staphylococcus aureus; assay: Antimicrobial activity against methicillin-resistant Staphylococcus aureus clinical isolate MRSA1 assessed as reduction in microbial growth by two-fold serial dilution method; format: functional
[13] = test system: Staphylococcus aureus; assay: Antimicrobial activity against Staphylococcus aureus […] assessed as reduction in microbial growth after 24 to 48 hrs by microdilution susceptibility test; format: functional
[14] = test system: Escherichia coli; assay: Antimicrobial activity against multi drug-resistant Escherichia coli assessed as reduction in microbial growth after 24 to 48 hrs by microdilution susceptibility test; format: functional
[15] = test system: Klebsiella pneumoniae; assay: Antimicrobial activity against multi drug-resistant Klebsiella pneumoniae assessed as reduction in microbial growth by two-fold serial dilution method; format: functional
[16] = test system: HepG2; assay: Cytotoxicity against human HepG2 cells; format: cell-based
[17] = test system: Staphylococcus aureus; assay: Antimicrobial activity against methicillin-resistant Staphylococcus aureus CCARM 3167 assessed as reduction in microbial growth by serial dilution method; format: functional
[18] = test system: Staphylococcus aureus; assay: Antimicrobial activity against methicillin-resistant Staphylococcus aureus CCARM 3506 assessed as reduction in microbial growth by serial dilution method; format: functional
[19] = test system: Staphylococcus aureus; assay: Antimicrobial activity against quinolone-resistant Staphylococcus aureus CCARM 3505 assessed as reduction in microbial growth by serial dilution method; format: functional
[20] = test system: Staphylococcus aureus; assay: Antimicrobial activity against quinolone-resistant Staphylococcus aureus CCARM 3519 assessed as reduction in microbial growth by serial dilution method; format: functional
[21] = test system: Enterococcus faecium; assay: Antimicrobial activity against Enterococcus faecium ATCC E007 assessed as reduction in microbial growth after 18 hrs by broth microdilution method; format: functional; details: ATCC E007, 18 h
[22] = test system: Staphylococcus aureus; assay: Antimicrobial activity against methicillin-resistant Staphylococcus aureus MW2 assessed as reduction in microbial growth after 18 hrs by broth microdilution method; format: functional; details: MW2, 18 h
[23] = test system: Staphylococcus aureus; assay: Antimicrobial activity against Staphylococcus aureus assessed as zone of inhibition at 1000 to 10000 ppm after 48 hrs; format: functional
[24] = test system: Proteus vulgaris; assay: Antimicrobial activity against Proteus vulgaris NCIM-2027 assessed as reduction in microbial growth after 24 hrs by CLSI based broth dilution method; format: functional; details: NCIM-2027, 24 h
[25] = test system: Escherichia coli; assay: Antimicrobial activity against Escherichia coli NCIM-2065 assessed as reduction in microbial growth after 24 hrs by CLSI based broth dilution method; format: functional; details: NCIM-2065, 24 h
[26] = test system: Bacillus cereus; assay: Antimicrobial activity against Bacillus cereus NCIM-2156 assessed as reduction in microbial growth after 24 hrs by CLSI based broth dilution method; format: functional; details: NCIM-2156, 24 h
[27] = test system: Bacillus subtilis; assay: Antimicrobial activity against Bacillus subtilis NCIM-2063 assessed as reduction in microbial growth after 24 hrs by CLSI based broth dilution method; format: functional; details: NCIM-2063, 24 h
[28] = test system: Staphylococcus aureus; assay: Antimicrobial activity against Staphylococcus aureus NCIM-2079 assessed as reduction in microbial growth after 24 hrs by CLSI based broth dilution method; format: functional; details: NCIM-2079, 24 h
[29] = test system: Pseudomonas aeruginosa; assay: Antimicrobial activity against Pseudomonas aeruginosa MTCC 741 assessed as reduction in microbial growth after 24 hrs by broth dilution method; format: functional; details: MTCC 741, 24 h
[30] = test system: Aspergillus niger; assay: Antifungal activity against Aspergillus niger MTCC 282 assessed as reduction in microbial growth after 48 hrs by broth dilution method; format: functional; details: MTCC 282, 48 h
[31] = test system: Aspergillus clavatus; assay: Antifungal activity against Aspergillus clavatus MTCC 1323 assessed as reduction in microbial growth after 48 hrs by broth dilution method; format: functional; details: MTCC 1323, 48 h
[32] = test system: Staphylococcus aureus; assay: Antimicrobial activity against Staphylococcus aureus MTCC 96 assessed as reduction in microbial growth after 24 hrs by broth dilution method; format: functional; details: MTCC 96, 24 h
[33] = test system: Lacticaseibacillus casei; assay: Antibacterial activity against Lactobacillus casei NCIM-2651 assessed as reduction in microbial growth incubated for 24 hrs by broth dilution method; format: functional; details: NCIM-2651, 24 h
[34] = test system: Bacillus cereus; assay: Antibacterial activity against Bacillus cereus NCIM-2458 assessed as reduction in microbial growth incubated for 24 hrs by broth dilution method; format: functional; details: NCIM-2458, 24 h
[35] = test system: Proteus mirabilis; assay: Antimicrobial activity against Proteus mirabilis assessed as zone of inhibition after 18 hrs by disk diffusion method; format: functional
[36] = test system: Staphylococcus aureus; assay: Antimicrobial activity methicillin-resistant against Staphylococcus aureus; format: functional
[37] = test system: Escherichia coli; assay: Antimicrobial activity against Escherichia coli assessed as zone of inhibition after 18 hrs by disk diffusion method; format: functional
[38] = test system: Candida albicans; assay: Antifungal activity against Candida albicans MTCC 183 assessed as reduction in microbial growth after 48 hrs by broth dilution method; format: functional; details: MTCC 183, 48 h
[39] = test system: Bacillus cereus; assay: Antimicrobial activity against Bacillus cereus MTCC 430 assessed as reduction in microbial growth after 24 hrs by broth dilution method; format: functional; details: MTCC 430, 24 h
[40] = test system: Pseudomonas aeruginosa; assay: Antimicrobial activity against Pseudomonas aeruginosa […] assessed as zone of inhibition at 10 mg/ml by Kirby-Bauer disk diffusion method; format: functional; details: read-out: IZ
[41] = test system: Micrococcus luteus; assay: Antimicrobial activity against Micrococcus luteus ATCC 10240 assessed as zone of inhibition at 10 mg/ml by Kirby-Bauer disk diffusion method; format: functional; details: read-out: IZ
[42] = test system: Helicobacter pylori; assay: Antimicrobial activity against Helicobacter pylori assessed as zone of inhibition; format: functional

MIC [1]: 50 µg/mL (≈ 75.5 µM)
Compound: Clc1nc2nc(n1)Oc1ccc3ccccc3c1Cc1c(ccc3ccccc13)Oc1nc(Cl)nc(n1)OCc1cccc(n1)CO2

MIC [2]: 25 µg/mL
MIC [3]: 50 µg/mL
Compound: O=[N+]([O-])c1ccc(Nc2nc(Nc3ccc(S(=O)(=O)Nc4ncccn4)cc3)nc(N3CCCCC3)n2)cc1

MIC [1]: 50 µg/mL (≈ 84.7 µM)
Compound: CC1(C)c2ccccc2Oc2nc(Cl)nc(n2)OCc2cccc(n2)COc2nc(Cl)nc(n2)Oc2ccccc21

MIC [24]: 1.95 to 15.6 µg/mL
MIC [25]: 1.95 to 15.6 µg/mL
MIC [26]: 1.95 to 15.6 µg/mL
MIC [27]: 1.95 to 15.6 µg/mL
MIC [28]: 1.95 to 15.6 µg/mL
Compound: O=C1CSC(c2ccccc2[N+](=O)[O-])N1c1nc(Nc2ccccc2[N+](=O)[O-])nc(Nc2ccccc2[N+](=O)[O-])n1 (stereo not drawn)

MIC [29]: 3.12 µg/mL
MIC [30]: 3.12 µg/mL
Compound: COc1nc(Sc2cccc(F)c2)nc(-c2ccc(C#N)cc2)n1

MIC [31]: 3.12 µg/mL
Compound: COc1nc(Sc2ccc(Cl)cc2)nc(-c2ccc(C#N)cc2)n1

MIC [32]: 3.12 µg/mL
Compound: COc1nc(Sc2ccc(F)cc2)nc(-c2ccc(C#N)cc2)n1

MIC [33]: 3.12 µg/mL
MIC [34]: 3.12 µg/mL
Compound: Nc1nc(Nc2nc(-c3ccc(Cl)c(Cl)c3)cs2)nc(Sc2ccccc2)n1

MIC [24]: 1.95 to 15.6 µg/mL
MIC [25]: 1.95 to 15.6 µg/mL
MIC [26]: 1.95 to 15.6 µg/mL
MIC [27]: 1.95 to 15.6 µg/mL
MIC [28]: 1.95 to 15.6 µg/mL
Compound: O=C1CSC(c2ccc([N+](=O)[O-])cc2)N1c1nc(Nc2ccc([N+](=O)[O-])cc2)nc(Nc2ccc([N+](=O)[O-])cc2)n1 (stereo not drawn)

MIC [33]: 3.12 µg/mL
MIC [34]: 3.12 µg/mL
Compound: Nc1nc(Nc2ccccc2)nc(Nc2nc(-c3ccc(Cl)c(Cl)c3)cs2)n1

MIC [38]: 3.12 µg/mL
MIC [39]: 6.25 µg/mL
Compound: COc1nc(Sc2cccc(Cl)c2)nc(-c2ccc(C#N)cc2)n1

MIC [42]: 25 µg/mL (≈ 57.2 µM)
Compound: Nc1nc(-n2c(-c3ccc([N+](=O)[O-])cc3)nc3ccccc3c2=O)nnc1-c1ccccc1

Continued, compound first:

Compound: N=C(N)NCCCN(CCCNC(=N)N)c1nc(NCc2cccc3ccccc23)nc(NCc2cccc3ccccc23)n1
MIC [4]: 2 µM
MIC [5]: 2 µM
MIC [6]: 8 µM
MIC [7]: 2 µM
MIC [8]: 2 µM
MIC [9]: 8 µM

Compound: CC[C@H](C)[C@H](NC(=O)CN)C(=O)NCC(=O)N[C@@H](C)C(=O)N[C@H](C(=O)N[C@@H](CC(C)C)C(=O)N[C@@H](CCCCN)C(=O)N[C@H](C(=O)N[C@@H](CC(C)C)C(=O)N[C@H](C(=O)N[C@H](C(=O)NCC(=O)N[C@@H](CC(C)C)C(=O)N1CCC[C@H]1C(=O)N[C@@H](C)C(=O)N[C@@H](CC(C)C)C(=O)N[C@H](C(=O)N[C@@H](CO)C(=O)N[C@@H](Cc1c[nH]c2ccccc12)C(=O)N[C@H](C(=O)N[C@@H](CCCCN)C(=O)N[C@@H](CCCNC(=N)N)C(=O)N[C@@H](CCCCN)C(=O)N[C@@H](CCCNC(=N)N)C(=O)N[C@@H](CCC(N)=O)C(=O)N[C@@H](CCC(N)=O)C(N)=O)[C@@H](C)CC)[C@@H](C)CC)[C@@H](C)O)[C@@H](C)O)C(C)C)C(C)C [MELITTIN]
MIC [5]: 2 µM

Compound: CC1(C)S[C@@H]2[C@H](NC(=O)[C@H](N)c3ccccc3)C(=O)N2[C@H]1C(=O)O [AMPICILLIN]
MIC [10]: > 250 µg/mL
MIC [11]: 25 µg/mL
MIC [12]: 6.25 µg/mL
MIC [13]: 12.5 µg/mL
MIC [2]: 100 µg/mL
MIC [14]: > 250 µg/mL
MIC [3]: 100 µg/mL
MIC [15]: 12.5 µg/mL

Compound: NC1=NC(c2ccc3cc(OCc4ccc(Cl)cc4Cl)ccc3c2)N=C(N2CCOCC2)N1 (stereo not drawn)
IC50 [16]: 34.3 µM
MIC [17]: 2.1 µM
MIC [18]: 2.1 µM
MIC [19]: 2.1 µM
MIC [20]: 2.1 µM

Compound: CC(C)(C)Nc1nc(NN)nc(NC(C)(C)C)n1
MIC [21]: 8 µg/mL
MIC [22]: 8 µg/mL

Compound: N=C(N)NCCCN(CCCNC(=N)N)c1nc(NCCC(c2ccccc2)c2ccccc2)nc(NCCC(c2ccccc2)c2ccccc2)n1
MIC [4]: 2 µM
MIC [5]: 4 µM
MIC [6]: 4 µM
MIC [7]: 2 µM
MIC [8]: 2 µM
MIC [9]: 4 µM

Compound: Cc1c(C(=O)NNc2ccccc2)nnc2c3c(-c4ccccc4)c(-c4ccccc4)nnc3nn12
inhibition zone (IZ) [23]: 4 mm

Compound: O=C(O)c1cn(C2CC2)c2cc(N3CCNCC3)c(F)cc2c1=O [CIPROFLOXACIN]
inhibition zone (IZ) [35]: 22 mm
MIC [36]: 4 µg/mL (≈ 12.1 µM)

Compound: CCOc1ccc(/C=N/NC(=O)Cn2c3ccccc3c3nnc(SCC(=O)CN/N=C/Cc4ccc(OCC)cc4)nc32)cc1
inhibition zone (IZ) [35]: 22 mm
inhibition zone (IZ) [37]: 22 mm

Compound: Cc1cc(C)n(-c2nc(NCc3ccccc3)nc(N3CCCCC3)n2)n1
zone of inhibition at 10000 µg/mL [40]: 19 mm
zone of inhibition at 10000 µg/mL [41]: 22 mm

Compound: O=C(CN/N=C/Cc1ccccn1)CSc1nnc2c3ccccc3n(CC(=O)N/N=C/c3ccccn3)c2n1
inhibition zone (IZ) [35]: 24 mm
inhibition zone (IZ) [37]: 24 mm

Compound: CC(=O)c1nnc2c3c(-c4ccccc4)c(-c4ccccc4)nnc3nn2c1C
inhibition zone (IZ) [23]: 44 mm
